Source: EPA's ToxValDB 9.5 (doi:10.2903/j.efsa.2009.193r)
Values after ≈ are worked out from the molar mass of the structure shown.

Experiments:
Folsomia candida = details: chronic/long-term; duration: 28 days; mortality
Lepomis macrochirus = details: acute; duration: 96 hours; mortality
Tagia sp. = details: acute; duration: 14 days; mortality
Anas platyrhynchos = details: short-term; oral; feed; mortality
Apis mellifera = details: acute; duration: 48 hours; dermal; mortality
Aphidius rhopalosiphi = experiment: LR50; higher = less toxic; details: not reported; mortality

[O-][n+]1nc(-n2ccnc2)nc2ccc(Cl)cc21 [Triazoxide]
NOEC (Folsomia candida): 500 mg/kg | LC50 (Lepomis macrochirus): 0.077 µg/mL (≈ 0.311 µM) | LC50 (Tagia sp.): > 1000 mg/kg | LD50 (Anas platyrhynchos): 268 mg/kg-day | LD50 (Coturnix japonica; acute, oral, mortality): 90 mg/kg-day | NOEC (Coturnix japonica; reproduction developmental, duration: 6 weeks): 11.7 mg/kg-day | LD50 (Rattus norvegicus; acute, oral, mortality): 98 mg/kg-day | LOAEL (Rattus norvegicus; chronic, duration: 2 years, oral, diet, hematological): 0.05 mg/kg-day | NOAEL (Rattus norvegicus; reproduction developmental, organ weight): 0.11 mg/kg-day | NOAEL (Rattus norvegicus; reproduction developmental, reproduction): 2.04 mg/kg-day | NOAEL (Rattus norvegicus; short-term, duration: 28 days, oral, hematological): 1.5 mg/kg-day | NOAEL (Rattus norvegicus; subchronic, duration: 90 days, oral, hematological): 0.21 mg/kg-day | LD50 (Apis mellifera): > 200 µg/piece | LR50 (Aphidius rhopalosiphi): > 5.13 g/ha
